Values quoted from earlier work, collected in patent US20260000626A1, “POLYMERIC NANOPARTICLES FOR LONG ACTING DELIVERY OF A PEPTIDE AND METHODS OF MAKING AND USING THEREOF” (Brown University, priority 2022, published 2026).

Assays:
GLP-1 receptor [1] = biological target: T1, GLP-1 receptor (Homo sapiens, UniProt P43220); details: negligible agonistic activity
GLP-1 receptor [2] = biological target: T1, GLP-1 receptor; details: vs intact GLP-1

T1 sequence (P43220 24-463, species assumed): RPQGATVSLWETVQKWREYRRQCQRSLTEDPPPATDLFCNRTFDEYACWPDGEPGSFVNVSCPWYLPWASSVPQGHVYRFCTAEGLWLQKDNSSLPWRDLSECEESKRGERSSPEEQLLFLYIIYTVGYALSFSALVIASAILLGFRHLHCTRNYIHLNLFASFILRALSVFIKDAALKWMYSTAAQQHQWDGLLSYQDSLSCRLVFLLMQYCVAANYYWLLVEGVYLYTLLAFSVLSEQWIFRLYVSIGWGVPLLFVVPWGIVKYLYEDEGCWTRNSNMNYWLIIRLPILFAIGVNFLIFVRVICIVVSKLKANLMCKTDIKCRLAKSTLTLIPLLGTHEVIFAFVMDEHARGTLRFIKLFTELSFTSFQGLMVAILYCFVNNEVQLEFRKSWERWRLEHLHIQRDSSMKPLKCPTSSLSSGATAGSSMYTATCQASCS

decrease in agonistic activity (GLP-1 receptor [1]): > 10000 fold
lower binding affinity compared to the intact peptide (GLP-1 receptor [2]): 100 fold
Substance: GLP-1(9-36)-NH2
